Legend:
[1] = system: mice; assay: Mouse Forced Swim Test (mFST); assay type: in vivo; settings: 1 mg/Kg i.v., 15 min before swim session
Procedure: Mouse Forced Swim Test (mFST).
Forced Swim Test (FST) is an animal model used to assess antidepressant compounds in preclinical studies. The FST was performed similar to the method of Porsolt et al. with modifications (Porsolt R D, Bertin A, Jalfre M. Behavioral despair in mice: a primary screening test for antidepressants. Arch Int Pharmacodyn Ther 1977; 229:327-36). In this paradigm, mice are forced to swim in an inescapable cylinder filled with water. Under these conditions, mice will initially try to escape and eventually develop immobility behavior; this behavior is interpreted as a passive stress-coping strategy or depression-like behavior. […] The duration of immobility was evaluated during the total 6 min of the test and expressed as duration (sec) of immobility. […] All testing sessions were recorded with a video camera (Sony Handicam, Model: DCR-HC38E; PAL) and scoring was done using the Forced Swim Scan, Version 2.0 software (Clever Systems Inc., Reston, Va., USA; see Hayashi E, Shimamura M, Kuratani K, Kinoshita M, Hara H. Automated experimental system capturing three behavioral components during murine forced swim test. Life Sci. 2011 Feb. 28; 88(9-10):411-7 and Yuan P, Tragon T, Xia M, Leclair C A, Skoumbourdis A P, Zheng W, Thomas C J, Huang R, Austin C P, Chen G, Guitart X. Phosphodiesterase 4 inhibitors enhance sexual pleasure-seeking activity in rodents. […]

[2] = target: NR2B-subtype NMDA receptors (Rattus norvegicus (Rat), UniProt P35439+Q00960); assay: Radioligand binding assay (3H Ro 25-6981 competition, rat forebrain membranes); settings: 3H Ro 25-6981 (4 nM)
Procedure: Radioligand Binding Assay.
Binding experiments to determine binding to NR2B-subtype NMDA receptors were performed on forebrains of 8-10 weeks old male Sprague Dawley rats (Harlan, Netherlands) using ^3H Ro 25-6981 (Mutel V; Buchy D; Klingelschmidt A; Messer J; Bleuel Z; Kemp J A; Richards J G. Journal of Neurochemistry, 1998, 70(5):2147-2155. Rats were decapitated without anesthesia using a Guillotine (approved by animal ethics committee) and the harvested brains were snap-frozen and stored at −80° C. for 3-6 months for membrane preparation.
For membrane preparation, rat forebrains were thawed on ice for 20 minutes in homogenization buffer composed of 50 mM KH2PO4 (pH adjusted to 7.4 with KOH), 1 mM EDTA, 0.005% Triton X 100 and protease inhibitor cocktail (Sigma Aldrich). Thawed brains were homogenized using a Dounce homogenizer and centrifuged at 48000×g for 20 min. The pellet was resuspended in cold buffer and homogenized again using a Dounce homogenizer. Subsequently, the homogenate was aliquoted, snap-frozen and stored at −80° C. for not more than 3-4 months.
To perform the competition binding assay, thawed membrane homogenate was added to each well of a 96-well plate (20 μg/well). […] The filter plates were dried at 50° C. for 20 mins, incubated with microscint 20 for 10 minutes and finally, the counts were read on TopCount (Perkin Elmer).

[3] = target: brain-resident NR2B-subtype receptors (Mus musculus (Mouse), UniProt P35438+Q01097); assay: Ex vivo occupancy assay; assay type: in vivo; settings: animals after dosing; no dose stated
Procedure: 7-9 weeks old male CD-1 mice were dosed intravenously in a vehicle consisting of 10% dimethylacetamide, 40% PEG-400, 30% hydroxypropyl betacyclodextrin, and 30% water with experimental compounds and the forebrains were harvested 15 minutes post-dosing by decapitation. The brain samples were immediately snap-frozen and stored at −80° C. On the following day, the dosed brain samples were thawed on ice for 15-20 minutes followed by homogenization using Polytron for 10 seconds in cold homogenization buffer composed of 50 mM KH2PO4 (pH adjusted to 7.4 with KOH), 1 mM EDTA, 0.005% Triton X 100 and protease inhibitor cocktail (Sigma Aldrich). The crude homogenates were further homogenized using a Dounce homogenizer and the homogenized membrane aliquots from all animals were flash-frozen and stored at −80° C. until further use. The whole homogenization process was performed on ice. For determining occupancy, the membrane homogenates were first thawed on ice and then needle-homogenized using a 25 gauge needle. The homogenized membrane (6.4 mg/ml) was added to a 96-well plate followed by addition of ^3H Ro 25-6981 (6 nM). […] The filter plates were dried at 50° C. for 20 mins, incubated with microscint 20 for 10 minutes and read on TopCount (Perkin Elmer). […] Non-specific binding was determined using 10 μM Ro 25-6981 added to the wells containing membrane homogenates from vehicle-dosed animals. […]

Chain of NR2B-subtype NMDA receptors (Q00960 27-1482, other chains not shown): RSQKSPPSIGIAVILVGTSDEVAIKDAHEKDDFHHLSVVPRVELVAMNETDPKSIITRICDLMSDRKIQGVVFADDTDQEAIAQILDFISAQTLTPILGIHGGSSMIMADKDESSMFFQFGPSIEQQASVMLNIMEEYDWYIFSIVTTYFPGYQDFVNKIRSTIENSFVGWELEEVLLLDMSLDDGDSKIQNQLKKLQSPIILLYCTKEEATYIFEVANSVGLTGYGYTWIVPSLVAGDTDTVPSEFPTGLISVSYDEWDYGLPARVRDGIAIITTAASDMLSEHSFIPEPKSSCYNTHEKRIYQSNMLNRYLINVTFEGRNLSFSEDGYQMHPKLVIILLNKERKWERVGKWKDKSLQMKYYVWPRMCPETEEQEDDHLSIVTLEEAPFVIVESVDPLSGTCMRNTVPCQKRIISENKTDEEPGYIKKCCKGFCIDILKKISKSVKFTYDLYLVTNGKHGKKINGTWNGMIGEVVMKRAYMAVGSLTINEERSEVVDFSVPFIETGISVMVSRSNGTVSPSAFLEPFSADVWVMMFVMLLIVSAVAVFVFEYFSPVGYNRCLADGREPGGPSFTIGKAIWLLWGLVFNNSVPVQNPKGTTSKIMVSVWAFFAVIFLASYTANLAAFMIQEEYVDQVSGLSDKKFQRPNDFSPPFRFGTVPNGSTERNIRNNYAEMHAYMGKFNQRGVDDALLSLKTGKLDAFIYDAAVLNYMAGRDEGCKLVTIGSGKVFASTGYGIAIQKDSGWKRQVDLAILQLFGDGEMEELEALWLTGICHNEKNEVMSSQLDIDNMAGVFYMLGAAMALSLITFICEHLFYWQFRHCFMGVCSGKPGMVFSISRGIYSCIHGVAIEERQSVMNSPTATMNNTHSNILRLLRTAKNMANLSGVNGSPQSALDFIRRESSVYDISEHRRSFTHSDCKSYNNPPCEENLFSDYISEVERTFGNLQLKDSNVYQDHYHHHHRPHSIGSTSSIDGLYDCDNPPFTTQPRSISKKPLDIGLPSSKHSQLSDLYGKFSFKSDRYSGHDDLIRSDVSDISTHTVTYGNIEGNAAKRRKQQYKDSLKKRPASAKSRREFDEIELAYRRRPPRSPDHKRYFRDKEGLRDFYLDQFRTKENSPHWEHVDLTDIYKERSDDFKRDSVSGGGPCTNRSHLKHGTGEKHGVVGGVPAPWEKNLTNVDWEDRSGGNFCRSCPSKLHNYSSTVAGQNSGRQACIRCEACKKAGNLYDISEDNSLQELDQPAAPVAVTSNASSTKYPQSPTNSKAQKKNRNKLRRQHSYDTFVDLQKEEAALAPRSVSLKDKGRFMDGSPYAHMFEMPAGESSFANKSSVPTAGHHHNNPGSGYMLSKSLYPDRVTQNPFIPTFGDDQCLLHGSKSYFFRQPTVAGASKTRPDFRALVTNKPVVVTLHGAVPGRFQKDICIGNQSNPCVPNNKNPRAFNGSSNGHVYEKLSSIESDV
Chain of brain-resident NR2B-subtype receptors (Q01097 27-1482, other chains not shown): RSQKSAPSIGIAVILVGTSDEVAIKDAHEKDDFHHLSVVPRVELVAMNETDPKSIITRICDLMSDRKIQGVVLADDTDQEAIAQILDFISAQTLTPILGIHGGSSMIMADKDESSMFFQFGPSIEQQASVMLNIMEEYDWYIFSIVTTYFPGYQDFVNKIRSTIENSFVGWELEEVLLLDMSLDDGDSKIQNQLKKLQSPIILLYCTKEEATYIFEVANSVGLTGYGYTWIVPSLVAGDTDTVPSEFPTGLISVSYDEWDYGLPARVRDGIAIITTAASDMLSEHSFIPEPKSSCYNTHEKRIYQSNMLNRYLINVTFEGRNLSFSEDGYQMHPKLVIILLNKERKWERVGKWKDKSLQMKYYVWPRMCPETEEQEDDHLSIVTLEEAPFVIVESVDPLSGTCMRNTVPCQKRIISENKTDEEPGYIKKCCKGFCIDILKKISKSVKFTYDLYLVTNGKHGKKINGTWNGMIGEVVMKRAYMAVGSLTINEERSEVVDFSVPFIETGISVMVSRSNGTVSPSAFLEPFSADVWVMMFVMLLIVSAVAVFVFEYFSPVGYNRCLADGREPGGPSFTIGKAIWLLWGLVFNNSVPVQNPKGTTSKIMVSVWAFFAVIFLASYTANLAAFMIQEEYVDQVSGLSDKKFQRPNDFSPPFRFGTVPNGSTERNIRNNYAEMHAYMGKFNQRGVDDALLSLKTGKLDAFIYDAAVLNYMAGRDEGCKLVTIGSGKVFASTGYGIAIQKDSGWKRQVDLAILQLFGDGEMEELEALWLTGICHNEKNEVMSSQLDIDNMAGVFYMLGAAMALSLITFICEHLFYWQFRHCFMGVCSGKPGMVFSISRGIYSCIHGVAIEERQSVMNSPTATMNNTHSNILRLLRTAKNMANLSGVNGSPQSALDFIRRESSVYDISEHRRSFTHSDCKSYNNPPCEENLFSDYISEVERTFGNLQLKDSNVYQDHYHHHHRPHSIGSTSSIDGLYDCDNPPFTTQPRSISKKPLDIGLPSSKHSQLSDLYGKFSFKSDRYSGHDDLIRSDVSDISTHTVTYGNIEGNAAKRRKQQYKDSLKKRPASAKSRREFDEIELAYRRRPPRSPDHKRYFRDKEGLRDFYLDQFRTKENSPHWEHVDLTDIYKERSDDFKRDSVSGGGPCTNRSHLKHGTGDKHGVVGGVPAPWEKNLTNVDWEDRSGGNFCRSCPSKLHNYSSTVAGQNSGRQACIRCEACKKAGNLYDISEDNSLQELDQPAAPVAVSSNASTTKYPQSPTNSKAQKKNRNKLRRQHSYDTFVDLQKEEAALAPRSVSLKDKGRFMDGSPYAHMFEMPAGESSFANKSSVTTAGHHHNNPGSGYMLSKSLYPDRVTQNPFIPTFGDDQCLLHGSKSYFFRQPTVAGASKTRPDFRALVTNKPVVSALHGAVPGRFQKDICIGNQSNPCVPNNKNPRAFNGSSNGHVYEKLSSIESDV

Cc1ccc(CN2OCC(N3CCN(c4ccc(O)cn4)CC3)C2=O)cc1 (single isomer, unassigned) [10,P-1, 4-(4-(5-hydroxypyridin-2-yl)piperazin-1-yl)-2-(4-methylbenzyl)isoxazolidin-3-one]
immobility time [1]: statistically significant decrease in immobility time

O=C1C(N2CCC(c3ccc(O)cn3)CC2)CON1Cc1ccc(F)cc1 (racemic) [Example 3, 2-(4-fluorobenzyl)-4-(4-(5-hydroxypyridin-2-yl)piperidin-1-yl)isoxazolidin-3-one]
Ki [2]: 15.1 nM

Cc1ccc(CN2OCCC(N3CCC(c4ccc(O)cc4)CC3)C2=O)cc1 (racemic) [Example 4, 4-(4-(4-hydroxyphenyl)piperidin-1-yl)-2-(4-methylbenzyl)-1,2-oxazinan-3-one]
Ki [2]: 5.49 nM

Cc1ccc(CN2OCC(N3CCC(c4ccc(O)cc4)CC3)C2=O)cc1 (single isomer, unassigned) [2,P-2, 4-(4-(4-hydroxyphenyl)piperidin-1-yl)-2-(4-methylbenzyl)isoxazolidin-3-one]
occupancy of brain-resident NR2B-subtype receptors (in words) [3]: occupies brain-resident NR2B-subtype receptors
